Consider nine molecules from patent US20240262826A1, “WILD TYPE KIT INHIBITORS” (Blueprint Medicines Corporation, priority 2022, published 2024).

The subject of data set [1] is NIH3T3 cell lines that overexpressed the kit mutation exon 9. The data set can be described thus: Exon 9 assay: cell viability (CellCounting Lite 2.0), 72 hours. Particulars: Mus musculus, read-out: IC50 NIH3T3-cKit-AY502-3dup. In kind it is cell-based. How it is done:
(§1) Exon 9 assay: The NIH3T3 cell lines that overexpressed the kit mutation exon 9 (or parental cells) were resuscitated and well cultured, and the cells were collected and seeded in 96-well plates at 3000/well, then the compounds were added to the 96 well plates in a gradient dilution, and the plates were incubated in an incubator for 72 hours.
(§2) After 72 hours of incubation, an equal volume of CellCounting
(§3) Lite 2.0 Luminescent Cell Viability reagent was added to the 96-well plates to detect the cell viability. The data were analyzed using GraphPad Prism 7.0 softwar e, and the nonlinear S-curve regression was used to fit the data to obtain the dose-effect curve, and the IC50 value was calculated accordingly.

Another data set deals with wild type c-kit (Homo sapiens (Human), UniProt P10721). Put plainly: PathScan phospho c-kit (Tyr719) sandwich ELISA in SCF-stimulated M-07e cells (pKIT assay). As to conditions: ELISA assay (values not marked *). In kind it is cell-based. The procedure, abridged: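 Serum- and GM-CSF-starved M-07e cells (4 h) pretreated 60 min at 37 °C with an 8-point compound series in duplicate (0.25% DMSO), then stimulated with human SCF (500 ng/mL stock) 10 min at room temperature. Lysate c-kit Tyr719 phosphorylation quantified by sandwich ELISA with TMB read-out; IC50 from 4-parameter logistic fit.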

The subject of the next data set is NIH3T3 parental cells. The data set can be described thus: Exon 9 assay, parental cells: cell viability (CellCounting Lite 2.0), 72 hours. It is filed as cell-based. As to conditions: Mus musculus. How it is done: as §1, §2, §3
Another data set concerns the target Exon 11 KIT (Homo sapiens (Human), UniProt P10721, V560G). Put plainly: Exon 11 HMC1.1 autophosphorylation assay (Phospho-Y719 c-KIT ELISA). It is filed as cell-based. As to conditions: 90 minutes, read-out: IC50 HMC1.1 pKIT. How it is done:
Exon 11 HMC1.1 autophosphorylation assay: 50,000 HMC1.1 cells were incubated in 50 ul culture media (phenol-red free IMDM, no iron, no serum) in each well of a 96-well plate and serum starved 4 hours in a tissue culture incubator (5% CO2, 37° C.). An 8-point dose concentration series of compound were then added to the cells in a volume of 7 ul to each well. After 90 minutes, 14 ul of 5× AlphaLISA Lysis Buffer (Perkin Elmer) supplemented with a protease and phosphatase inhibitor cocktail (Cell Signaling Technologies) was added to each well and shaken at […] for 5 minutes at 4° C. Phospho-Y719 c-KIT ELISA kit from Cell Signaling Technology was used to assess levels of phospho KIT.

Data set [2] addresses human P-glycoprotein (P-gp, MDR1) (Homo sapiens (Human), UniProt P08183). The data set can be described thus: MDCK-MDR1 cell monolayer drug transport assay (P-gp efflux ratio). In kind it is in vitro ADME. As to conditions: pH 7.4, MDCK-MDR1 cells, 1 uM concentration of compound, read-out: Pgp Efflux Ratio, 1 uM. The gist of the method:
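P-gp substrate potential tested in MDCK-MDR1 monolayers on Transwell supports, cultured 4-8 days; monolayers with TEER <42 ohms·cm2 discarded. Transport run in HBSS (10 mM HEPES, pH 7.4) at 37° C with compound working solution at 1 μM.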

Sequence of Exon 11 KIT (P10721 26-976 V560G): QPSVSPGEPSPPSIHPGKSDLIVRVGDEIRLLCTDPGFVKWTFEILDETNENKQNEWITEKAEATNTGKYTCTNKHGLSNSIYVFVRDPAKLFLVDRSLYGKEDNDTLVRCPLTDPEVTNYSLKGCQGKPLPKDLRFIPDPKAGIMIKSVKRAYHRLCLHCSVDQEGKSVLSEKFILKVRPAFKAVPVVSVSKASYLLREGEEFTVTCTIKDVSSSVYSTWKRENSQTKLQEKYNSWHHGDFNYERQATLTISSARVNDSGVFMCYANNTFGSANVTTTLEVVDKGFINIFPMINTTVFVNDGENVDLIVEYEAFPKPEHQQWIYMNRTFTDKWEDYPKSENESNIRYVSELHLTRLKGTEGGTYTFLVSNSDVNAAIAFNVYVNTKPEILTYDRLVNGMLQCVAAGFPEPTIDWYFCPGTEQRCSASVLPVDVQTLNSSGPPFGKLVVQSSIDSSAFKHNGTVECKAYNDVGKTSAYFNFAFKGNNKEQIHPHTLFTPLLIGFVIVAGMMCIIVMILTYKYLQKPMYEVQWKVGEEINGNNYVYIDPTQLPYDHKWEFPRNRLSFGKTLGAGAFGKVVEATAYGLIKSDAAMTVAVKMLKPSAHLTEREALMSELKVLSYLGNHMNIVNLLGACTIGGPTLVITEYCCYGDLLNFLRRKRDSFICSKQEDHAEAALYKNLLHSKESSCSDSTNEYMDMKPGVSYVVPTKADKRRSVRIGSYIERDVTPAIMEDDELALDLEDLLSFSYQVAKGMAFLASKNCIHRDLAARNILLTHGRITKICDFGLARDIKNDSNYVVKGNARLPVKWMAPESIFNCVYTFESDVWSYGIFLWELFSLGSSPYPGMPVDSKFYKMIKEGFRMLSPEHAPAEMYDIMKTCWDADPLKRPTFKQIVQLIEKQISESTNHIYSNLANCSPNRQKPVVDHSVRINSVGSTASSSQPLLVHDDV
Sequence of human P-glycoprotein (P-gp, MDR1) (P08183 whole entry): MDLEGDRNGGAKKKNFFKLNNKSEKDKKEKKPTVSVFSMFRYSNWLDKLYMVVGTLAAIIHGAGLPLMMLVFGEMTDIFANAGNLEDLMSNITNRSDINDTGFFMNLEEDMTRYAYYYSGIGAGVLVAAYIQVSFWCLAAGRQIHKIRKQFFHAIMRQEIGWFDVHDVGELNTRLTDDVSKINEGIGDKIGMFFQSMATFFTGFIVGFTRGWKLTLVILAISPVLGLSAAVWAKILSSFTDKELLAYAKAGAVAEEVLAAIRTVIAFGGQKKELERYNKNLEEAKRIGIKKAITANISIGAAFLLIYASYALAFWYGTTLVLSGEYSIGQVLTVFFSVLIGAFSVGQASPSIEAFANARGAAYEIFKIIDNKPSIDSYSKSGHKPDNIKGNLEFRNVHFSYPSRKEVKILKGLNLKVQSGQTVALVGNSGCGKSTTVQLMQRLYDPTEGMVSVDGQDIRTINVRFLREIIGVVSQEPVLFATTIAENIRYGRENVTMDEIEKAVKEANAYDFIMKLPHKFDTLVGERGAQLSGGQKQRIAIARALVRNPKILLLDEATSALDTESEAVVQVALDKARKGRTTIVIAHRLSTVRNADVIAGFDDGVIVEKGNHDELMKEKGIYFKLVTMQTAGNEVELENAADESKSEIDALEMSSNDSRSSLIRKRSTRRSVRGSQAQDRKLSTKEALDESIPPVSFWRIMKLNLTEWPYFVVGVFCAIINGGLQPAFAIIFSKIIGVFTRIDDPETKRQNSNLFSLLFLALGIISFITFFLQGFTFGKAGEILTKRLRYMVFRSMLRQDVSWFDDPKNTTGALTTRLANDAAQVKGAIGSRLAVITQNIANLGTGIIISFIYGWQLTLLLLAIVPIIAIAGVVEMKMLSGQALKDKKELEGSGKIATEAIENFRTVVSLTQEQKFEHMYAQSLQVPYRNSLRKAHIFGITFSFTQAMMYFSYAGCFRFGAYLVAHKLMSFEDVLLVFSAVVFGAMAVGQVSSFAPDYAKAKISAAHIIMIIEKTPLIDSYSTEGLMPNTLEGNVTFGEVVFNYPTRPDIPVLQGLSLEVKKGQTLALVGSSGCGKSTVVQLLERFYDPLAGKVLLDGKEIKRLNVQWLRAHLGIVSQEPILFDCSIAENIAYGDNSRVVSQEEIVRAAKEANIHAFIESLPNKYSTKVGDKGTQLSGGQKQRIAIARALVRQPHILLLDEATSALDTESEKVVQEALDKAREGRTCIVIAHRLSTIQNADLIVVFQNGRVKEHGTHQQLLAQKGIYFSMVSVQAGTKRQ
Sequence of wild type c-kit (P10721 26-976): as the sequence (P10721 26-976 V560G) above, with G535V counted along it

Consider `COCCOC[C@H](O)Cn1cc(-c2ccn3ncc(C(=O)Nc4cc(-c5nnn(C6CC6)n5)c(F)cc4Cl)c3c2)c(C)n1` [Example 286, (R)—N-(2-chloro-5-(2-cyclopropyl-2H-tetrazol-5-yl)-4-fluorophenyl)-5-(1-(2-hydroxy-3-(2-methoxyethoxy)propyl)-3-methyl-1H-pyrazol-4-yl)pyrazolo[1,5-a]pyridine-3-carboxamide], for which the IC50 in data set [1] was 42.5 nM; against wild type c-kit it was 0.3 nM; in the data set on NIH3T3 parental cells, 480 nM.

Consider `COCCNc1ccn2ncc(C(=O)Nc3cc(-c4nnn(C5CN(C(=O)OC)C5)n4)ccc3C)c2c1` [Example 148, methyl 3-(5-(3-(5-((2-methoxyethyl)amino)pyrazolo[1,5-a]pyridine-3-carboxamido)-4-methylphenyl)-2H-tetrazol-2-yl)azetidine-1-carboxylate], for which the IC50 at Exon 11 KIT was 1 nM; at wild type c-kit, 34.8 nM. For the same molecule, the efflux ratio at 2 h, 1 µM in data set [2] was determined as 24.9.

In the case of `CCn1nnc(-c2ccc(Cl)c(NC(=O)c3cnn4ccc(-c5cn(C[C@H](O)COC)nc5C)cc34)c2)n1` [Example 284, (S)—N-(2-chloro-5-(2-ethyl-2H-tetrazol-5-yl)phenyl)-5-(1-(2-hydroxy-3-methoxypropyl)-3-methyl-1H-pyrazol-4-yl)pyrazolo[1,5-a]pyridine-3-carboxamide], the IC50 on Exon 11 KIT was found to be 0.2 nM; in data set [1], 7.5 nM; against wild type c-kit, 0.2 nM; with NIH3T3 parental cells, 161 nM.

`COC[C@@H](O)Cn1cc(-c2ccn3ncc(C(=O)Nc4cc(-c5nnn(C6CC6)n5)ccc4Cl)c3c2)c(C)n1` [Example 263, (S)-N-(2-chloro-5-(2-cyclopropyl-2H-tetrazol-5-yl)phenyl)-5-(1-(2-hydroxy-3-methoxypropyl)-3-methyl-1H-pyrazol-4-yl)pyrazolo[1,5-a]pyridine-3-carboxamide]: the IC50 at Exon 11 KIT was determined as 0.2 nM; in data set [1] it was 2 nM; at wild type c-kit it was 0.2 nM; in the data set with NIH3T3 parental cells it was 123 nM. Moreover, the efflux ratio at 2 h, 1 µM in data set [2] was 3.

For the molecule `COC[C@@H](O)Cn1cc(-c2ccn3ncc(C(=O)Nc4cc(-c5nnn(C6CC6)n5)ccc4Cl)c3c2)cn1` [Example 237, (S)-N-(2-chloro-5-(2-cyclopropyl-2H-tetrazol-5-yl)phenyl)-5-(1-(2-hydroxy-3-methoxypropyl)-1H-pyrazol-4-yl)pyrazolo[1,5-a]pyridine-3-carboxamide], the IC50 at Exon 11 KIT was 0.7 nM; in data set [1], 15.6 nM; against wild type c-kit, 0.5 nM. Further, in data set [2], the efflux ratio at 2 h, 1 µM was 3.2.

Regarding `COC(=O)N1CC(c2cnn(-c3ccc(C)c(NC(=O)c4cnn5ccc(N6CCN(C)CC6)cc45)c3)n2)C1` [Example 81, methyl 3-(2-(4-methyl-3-(5-(4-methylpiperazin-1-yl)pyrazolo[1,5-a]pyridine-3-carboxamido)phenyl)-2H-1,2,3-triazol-4-yl)azetidine-1-carboxylate], the IC50 at Exon 11 KIT turned out to be 6.4 nM; against wild type c-kit, 19 nM.

On to `Cc1nn(C[C@H](C)O)cc1-c1ccn2ncc(C(=O)Nc3cc(-c4nnn(C5CC5)n4)ccc3Cl)c2c1` [Example 278, (S)—N-(2-chloro-5-(2-cyclopropyl-2H-tetrazol-5-yl)phenyl)-5-(1-(2-hydroxypropyl)-3-methyl-1H-pyrazol-4-yl)pyrazolo[1,5-a]pyridine-3-carboxamide], for which the half-inhibitory concentration (IC50) stood at 0.2 nM at Exon 11 KIT and 0.3 nM against wild type c-kit. Besides, the efflux ratio at 2 h, 1 µM in data set [2] came out at 3.6.

Take `Cc1cc(F)c(-c2nnn(C3CC3)n2)cc1NC(=O)c1cnn2ccc(-c3cn(CC(C)(C)O)nc3C)cc12` [Example 239, N-(5-(2-cyclopropyl-2H-tetrazol-5-yl)-4-fluoro-2-methylphenyl)-5-(1-(2-hydroxy-2-methylpropyl)-3-methyl-1H-pyrazol-4-yl)pyrazolo[1,5-a]pyridine-3-carboxamide]: the figures for the IC50 at Exon 11 KIT and against wild type c-kit were 0.9 nM and 0.3 nM, respectively. Besides, in data set [2], the efflux ratio at 2 h, 1 µM came to 13.2.

For the molecule `Cc1nn(C[C@H](C)O)cc1-c1ccn2ncc(C(=O)Nc3cc(-c4nnn(C5CC5)n4)c(F)cc3Cl)c2c1` [Example 280, (S)—N-(2-chloro-5-(2-cyclopropyl-2H-tetrazol-5-yl)-4-fluorophenyl)-5-(1-(2-hydroxypropyl)-3-methyl-1H-pyrazol-4-yl)pyrazolo[1,5-a]pyridine-3-carboxamide], the results for the IC50 (in data set [1]; against wild type c-kit; in the data set on NIH3T3 parental cells) were 10 nM, 0.2 nM and 413 nM, respectively.

By IC50 is commonly meant the concentration that gives 50% inhibition.
